The values below come from article PMC7827406, “Structure–Activity Relationship (SAR) Study of Spautin-1 to Entail the Discovery of Novel NEK4 Inhibitors” (International Journal of Molecular Sciences, 2021).

Molecules are shown by their SMILES. Where two headings read alike, the source gives them in different places.

Common to all, as to experiment: biochemical
Design in all cases: Eurofins KinaseProfiler full panel at Km ATP, residual kinase activity (%) relative to DMSO

The target in assay [1] is T1, ULK3(h) (Homo sapiens, UniProt Q6PHR2).
T1 sequence (Q6PHR2 1-472): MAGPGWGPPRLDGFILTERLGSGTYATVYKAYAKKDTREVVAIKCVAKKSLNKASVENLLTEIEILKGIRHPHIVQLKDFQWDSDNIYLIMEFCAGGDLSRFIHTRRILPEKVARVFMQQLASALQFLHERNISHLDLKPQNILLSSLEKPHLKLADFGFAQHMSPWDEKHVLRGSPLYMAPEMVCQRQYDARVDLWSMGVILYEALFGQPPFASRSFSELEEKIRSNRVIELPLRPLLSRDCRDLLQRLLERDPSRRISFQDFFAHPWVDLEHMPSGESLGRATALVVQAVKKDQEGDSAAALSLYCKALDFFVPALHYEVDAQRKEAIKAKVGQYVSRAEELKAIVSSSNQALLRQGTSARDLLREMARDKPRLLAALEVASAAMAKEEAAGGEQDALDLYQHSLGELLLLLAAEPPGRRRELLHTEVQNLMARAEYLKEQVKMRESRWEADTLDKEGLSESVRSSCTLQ
The gist of the method: (§1)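 Two 10 µM single-concentration screens were run: a competition-binding screen, in which DNA-tagged kinase bound to immobilized ligands was quantified by qPCR, and a radiometric activity panel at Km ATP. Each is expressed as residual kinase activity (%).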

In assay [2] the target is MYLK2(h) (Homo sapiens, UniProt Q9H1R3). An outline of the steps: as §1
Chain of MYLK2(h) (Q9H1R3 whole entry): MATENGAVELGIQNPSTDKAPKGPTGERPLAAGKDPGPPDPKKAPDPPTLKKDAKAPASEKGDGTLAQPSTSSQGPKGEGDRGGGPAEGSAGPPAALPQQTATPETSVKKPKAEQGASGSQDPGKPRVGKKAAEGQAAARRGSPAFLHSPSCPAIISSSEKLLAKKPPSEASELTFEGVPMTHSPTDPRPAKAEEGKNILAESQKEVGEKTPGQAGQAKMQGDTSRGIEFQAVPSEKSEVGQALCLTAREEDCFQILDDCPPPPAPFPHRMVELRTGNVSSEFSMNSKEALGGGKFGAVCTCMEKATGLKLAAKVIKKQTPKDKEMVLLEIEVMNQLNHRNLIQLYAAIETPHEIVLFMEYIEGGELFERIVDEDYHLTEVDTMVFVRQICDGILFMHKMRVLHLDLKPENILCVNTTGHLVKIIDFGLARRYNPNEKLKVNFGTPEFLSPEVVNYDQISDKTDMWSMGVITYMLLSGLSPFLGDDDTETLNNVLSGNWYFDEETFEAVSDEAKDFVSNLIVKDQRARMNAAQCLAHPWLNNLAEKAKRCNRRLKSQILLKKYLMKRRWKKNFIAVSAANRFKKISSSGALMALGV
Assay [3] deals with T2, PI3 Kinase (p110a(E545K)/p85a)(m) (Mus musculus, UniProt P42337, E545K).
T2 construct: gene Pik3ca
T2 sequence (P42337 whole entry E545K): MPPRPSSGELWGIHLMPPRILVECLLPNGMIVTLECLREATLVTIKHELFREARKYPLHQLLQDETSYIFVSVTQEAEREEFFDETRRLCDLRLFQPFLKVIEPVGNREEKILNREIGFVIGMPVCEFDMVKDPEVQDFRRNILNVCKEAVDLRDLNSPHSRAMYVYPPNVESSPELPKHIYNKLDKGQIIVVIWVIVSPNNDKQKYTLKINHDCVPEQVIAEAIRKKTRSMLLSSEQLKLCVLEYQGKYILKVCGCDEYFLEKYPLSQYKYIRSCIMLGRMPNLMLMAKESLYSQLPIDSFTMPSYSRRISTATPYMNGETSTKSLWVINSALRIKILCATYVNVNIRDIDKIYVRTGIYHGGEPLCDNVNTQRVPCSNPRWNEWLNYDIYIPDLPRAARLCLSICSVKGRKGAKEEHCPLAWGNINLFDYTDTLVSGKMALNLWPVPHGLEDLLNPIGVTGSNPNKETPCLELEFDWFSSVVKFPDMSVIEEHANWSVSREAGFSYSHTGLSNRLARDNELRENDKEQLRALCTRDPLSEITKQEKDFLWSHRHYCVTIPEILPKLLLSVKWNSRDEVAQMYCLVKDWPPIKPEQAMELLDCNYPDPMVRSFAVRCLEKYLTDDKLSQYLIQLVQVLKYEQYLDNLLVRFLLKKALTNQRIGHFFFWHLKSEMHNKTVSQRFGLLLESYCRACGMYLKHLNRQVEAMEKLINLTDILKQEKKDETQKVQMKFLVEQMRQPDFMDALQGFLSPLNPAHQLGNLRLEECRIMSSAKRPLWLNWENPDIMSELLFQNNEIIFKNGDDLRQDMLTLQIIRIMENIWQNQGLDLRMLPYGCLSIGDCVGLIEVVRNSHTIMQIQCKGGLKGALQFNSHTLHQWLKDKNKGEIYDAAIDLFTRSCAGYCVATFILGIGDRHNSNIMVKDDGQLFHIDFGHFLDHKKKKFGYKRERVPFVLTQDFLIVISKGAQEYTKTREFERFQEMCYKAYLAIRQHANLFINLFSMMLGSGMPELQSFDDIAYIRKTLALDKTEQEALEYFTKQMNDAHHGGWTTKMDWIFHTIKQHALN
T2 sequence (P26450 whole entry partner): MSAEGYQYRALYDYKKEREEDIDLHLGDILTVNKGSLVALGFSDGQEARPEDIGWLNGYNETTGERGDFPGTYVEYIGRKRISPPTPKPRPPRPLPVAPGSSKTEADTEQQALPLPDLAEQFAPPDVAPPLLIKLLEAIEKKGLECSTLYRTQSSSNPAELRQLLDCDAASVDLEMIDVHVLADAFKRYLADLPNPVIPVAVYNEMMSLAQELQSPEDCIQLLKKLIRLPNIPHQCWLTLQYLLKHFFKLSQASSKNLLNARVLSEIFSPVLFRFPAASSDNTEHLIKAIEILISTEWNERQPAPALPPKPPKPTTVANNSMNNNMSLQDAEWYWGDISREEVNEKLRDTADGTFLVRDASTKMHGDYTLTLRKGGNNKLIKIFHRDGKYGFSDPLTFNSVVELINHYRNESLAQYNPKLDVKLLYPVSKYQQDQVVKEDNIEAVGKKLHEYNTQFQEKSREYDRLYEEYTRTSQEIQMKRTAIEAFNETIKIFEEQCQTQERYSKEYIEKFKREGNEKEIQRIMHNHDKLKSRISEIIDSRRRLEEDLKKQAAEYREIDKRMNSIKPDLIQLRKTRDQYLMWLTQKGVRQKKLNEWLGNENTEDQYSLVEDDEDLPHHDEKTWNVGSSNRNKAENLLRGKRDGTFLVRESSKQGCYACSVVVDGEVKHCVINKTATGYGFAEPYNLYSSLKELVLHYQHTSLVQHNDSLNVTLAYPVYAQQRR
An outline of the steps: as §1

The target in assay [4] is T3, NEK9(h) (Homo sapiens, UniProt Q8TD19).
T3 sequence (Q8TD19 1-979): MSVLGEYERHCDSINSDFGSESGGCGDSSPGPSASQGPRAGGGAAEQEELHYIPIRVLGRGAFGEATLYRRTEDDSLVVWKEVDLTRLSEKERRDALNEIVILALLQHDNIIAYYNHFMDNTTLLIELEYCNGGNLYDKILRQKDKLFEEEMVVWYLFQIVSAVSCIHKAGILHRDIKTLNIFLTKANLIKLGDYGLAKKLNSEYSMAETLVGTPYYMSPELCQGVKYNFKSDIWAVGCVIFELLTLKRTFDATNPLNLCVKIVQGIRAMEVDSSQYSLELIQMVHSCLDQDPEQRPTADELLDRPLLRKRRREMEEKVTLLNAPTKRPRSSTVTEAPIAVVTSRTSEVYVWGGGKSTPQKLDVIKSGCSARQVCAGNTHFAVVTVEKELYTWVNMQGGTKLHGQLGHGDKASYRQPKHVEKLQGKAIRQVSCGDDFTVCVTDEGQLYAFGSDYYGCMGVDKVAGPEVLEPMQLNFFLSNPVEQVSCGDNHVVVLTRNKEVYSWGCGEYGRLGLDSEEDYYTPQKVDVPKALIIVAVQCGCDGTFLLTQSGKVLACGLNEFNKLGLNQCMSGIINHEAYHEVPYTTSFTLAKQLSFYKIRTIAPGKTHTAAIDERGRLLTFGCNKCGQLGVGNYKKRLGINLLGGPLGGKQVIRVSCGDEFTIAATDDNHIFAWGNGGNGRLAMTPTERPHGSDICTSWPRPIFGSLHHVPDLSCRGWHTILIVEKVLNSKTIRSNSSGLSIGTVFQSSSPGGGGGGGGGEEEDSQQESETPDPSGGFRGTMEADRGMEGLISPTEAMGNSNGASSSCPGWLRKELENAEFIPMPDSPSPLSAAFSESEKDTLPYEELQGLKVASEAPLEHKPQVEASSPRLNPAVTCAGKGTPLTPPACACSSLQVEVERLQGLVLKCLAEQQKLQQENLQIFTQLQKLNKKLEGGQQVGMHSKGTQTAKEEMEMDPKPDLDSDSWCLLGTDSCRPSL
An outline of the steps: as §1

Assay [5] concerns the target T4, MEKK2(h) (Homo sapiens, UniProt Q9Y2U5).
T4 construct: gene MAP3K2
T4 sequence (Q9Y2U5 1-619): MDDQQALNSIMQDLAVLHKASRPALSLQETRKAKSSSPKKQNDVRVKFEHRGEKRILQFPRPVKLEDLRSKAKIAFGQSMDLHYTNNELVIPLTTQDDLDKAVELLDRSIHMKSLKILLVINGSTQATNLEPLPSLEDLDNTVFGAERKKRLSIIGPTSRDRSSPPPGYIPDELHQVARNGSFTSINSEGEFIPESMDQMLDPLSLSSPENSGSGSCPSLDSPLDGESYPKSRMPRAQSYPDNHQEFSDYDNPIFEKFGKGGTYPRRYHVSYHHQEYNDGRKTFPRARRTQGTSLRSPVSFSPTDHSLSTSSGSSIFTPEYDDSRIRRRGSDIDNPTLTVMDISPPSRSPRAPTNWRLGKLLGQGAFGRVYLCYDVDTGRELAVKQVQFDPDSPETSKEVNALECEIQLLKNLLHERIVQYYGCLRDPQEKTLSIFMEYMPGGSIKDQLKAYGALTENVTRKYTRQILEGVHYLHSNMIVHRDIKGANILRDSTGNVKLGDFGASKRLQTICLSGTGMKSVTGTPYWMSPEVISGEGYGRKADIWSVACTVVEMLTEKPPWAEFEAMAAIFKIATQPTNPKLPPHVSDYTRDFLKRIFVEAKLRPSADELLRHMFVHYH
The gist of the method:
as §1

Assay [6] deals with ErbB4(h) (Homo sapiens, UniProt Q15303). The gist of the method: as §1
Chain of ErbB4(h) (Q15303 whole entry): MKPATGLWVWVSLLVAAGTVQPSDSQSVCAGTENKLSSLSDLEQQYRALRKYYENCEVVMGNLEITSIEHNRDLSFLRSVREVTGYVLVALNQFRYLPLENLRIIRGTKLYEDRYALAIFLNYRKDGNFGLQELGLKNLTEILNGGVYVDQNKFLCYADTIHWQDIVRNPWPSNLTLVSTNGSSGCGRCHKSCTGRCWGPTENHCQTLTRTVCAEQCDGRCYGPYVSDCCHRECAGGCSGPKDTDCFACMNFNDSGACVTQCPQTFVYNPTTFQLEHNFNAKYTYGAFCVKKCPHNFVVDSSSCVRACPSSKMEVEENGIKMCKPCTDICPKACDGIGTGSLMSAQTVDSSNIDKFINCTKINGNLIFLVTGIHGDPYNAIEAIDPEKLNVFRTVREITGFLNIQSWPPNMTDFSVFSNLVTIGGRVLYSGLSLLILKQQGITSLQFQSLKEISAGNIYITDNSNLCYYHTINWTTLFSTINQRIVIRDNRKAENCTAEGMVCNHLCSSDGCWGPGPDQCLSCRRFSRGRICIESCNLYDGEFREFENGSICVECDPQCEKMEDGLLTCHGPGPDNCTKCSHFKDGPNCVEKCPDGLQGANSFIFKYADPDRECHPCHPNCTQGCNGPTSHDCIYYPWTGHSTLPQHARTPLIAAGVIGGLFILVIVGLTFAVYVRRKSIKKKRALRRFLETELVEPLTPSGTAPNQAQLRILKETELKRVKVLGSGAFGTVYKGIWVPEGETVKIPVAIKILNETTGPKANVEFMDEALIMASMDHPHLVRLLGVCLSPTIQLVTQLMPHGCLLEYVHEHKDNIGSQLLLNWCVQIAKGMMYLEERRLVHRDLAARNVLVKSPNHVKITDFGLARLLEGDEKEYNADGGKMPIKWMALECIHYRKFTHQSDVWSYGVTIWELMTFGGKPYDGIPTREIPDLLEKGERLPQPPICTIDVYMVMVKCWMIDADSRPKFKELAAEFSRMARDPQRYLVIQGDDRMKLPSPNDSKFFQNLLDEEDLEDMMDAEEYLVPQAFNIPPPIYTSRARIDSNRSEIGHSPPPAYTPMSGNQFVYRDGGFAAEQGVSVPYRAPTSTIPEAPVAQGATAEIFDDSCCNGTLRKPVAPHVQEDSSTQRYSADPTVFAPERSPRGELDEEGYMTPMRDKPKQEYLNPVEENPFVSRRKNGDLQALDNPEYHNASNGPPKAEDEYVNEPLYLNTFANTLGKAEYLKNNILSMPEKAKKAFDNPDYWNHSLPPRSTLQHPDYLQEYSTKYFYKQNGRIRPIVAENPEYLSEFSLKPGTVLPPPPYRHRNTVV
[7] abbreviates: read-out: Residual activity (%) Spautin-1 5aa.
Where [8] appears, read: read-out: Residual activity (%) 5as.
[9] abbreviates: read-out: Residual activity (%) 5at.
[10] abbreviates: read-out: Residual activity (%) 5ay.

On to `Fc1ccc(CNc2ncnc3ccc(F)cc23)cc1` [5aa, 6-Fluoro-N-(4-fluorobenzyl)-4-Quinazolinamine], for which the remaining activity at 10 µM was determined as 96% in assay [1] (setting [7]); 97% in assay [2] (setting [7]); 94% in assay [3] (setting [7]); 98% in assay [4] (setting [7]); 113% in assay [5] (setting [7]); 90% in assay [6] (setting [7]).

For `Fc1ccc(CCNc2ncnc3ccc(F)cc23)cc1` [5as, 6-Fluoro-N-[2-(4-Fluorophenyl)Ethyl]-4-Quinazolinamine], the remaining activity at 10 µM in assay [1] (setting [8]) stood at 92%; in assay [2] (setting [8]) it was 80%; in assay [3] (setting [8]), 91%; in assay [4] (setting [8]), 103%; in assay [5] (setting [8]), 99%; in assay [6] (setting [8]), 84%.

`Fc1ccc2ncnc(NCCc3ccc(Cl)cc3)c2c1` [5at, N-[2-(4-Chlorophenyl)Ethyl]-6-Fluoro-4-Quinazolinamine]: the remaining activity at 10 µM turned out to be 93% in assay [1] (setting [9]); 93% in assay [2] (setting [9]); 91% in assay [3] (setting [9]); 92% in assay [4] (setting [9]); 102% in assay [5] (setting [9]); 79% in assay [6] (setting [9]).

Consider `COc1ccc2ncnc(Nc3cccc(F)c3)c2c1` [5ay, N-(3-Fluorophenyl)-6-Methoxy-4-Quinazolinamine], for which the remaining activity at 10 µM was determined as 90% in assay [1] (setting [10]); 89% in assay [2] (setting [10]); 91% in assay [3] (setting [10]); 92% in assay [4] (setting [10]); 108% in assay [5] (setting [10]); 74% in assay [6] (setting [10]).
